9 molecules from DBAASP can be followed below.

Converted amounts (≈) assume the structure as drawn.

Among the test systems are Streptococcus agalactiae; Enterobacter cloacae; Pseudomonas aeruginosa; Staphylococcus aureus; Bacillus subtilis; Escherichia coli.
What all share (assay): ≥ marks a high value that may be exact or a test limit, other limits are often not marked, values filed in µg/mL are converted to µM
Test [1] deals with Staphylococcus aureus NCTC 10788.
For test [2], the system named is Candida albicans NCPF 1467.
In test [3] the test system is Pseudomonas aeruginosa ATCC 9027.
Test [4] concerns Salmonella enterica subsp. enterica serovar Typhi ATCC 6399.
In test [5] the test system is Staphylococcus aureus ATCC 25923.
Test [6] concerns Escherichia coli ATCC 25922.
Test [7] deals with Bacillus subtilis ATCC 6633.
Test [8] relates to Bacillus pumilus CVCC 709.
In test [9] the test system is Micrococcus luteus CVCC 1600.
The test system of test [10] is Staphylococcus aureus CVCC 1882.
In test [11] the test system is Bacillus subtilis CVCC 717.
Test [12] has as its system Escherichia coli CVCC 1570.
In test [13] the test system is Candida albicans ATCC 20032.
The subject of test [14] is Acinetobacter baumannii NM8.
Test [15] has as its system Stenotrophomonas maltophilia B32/1.
Test [16] relates to Stenotrophomonas maltophilia B32/4.
Test [17] has as its system Acinetobacter baumannii NM35.
Test [18] has as its system Staphylococcus aureus 127/08.
Test [19] relates to Escherichia coli ATCC 25726.
Test [20] has as its system Pseudomonas aeruginosa ATCC 27853.
For test [21], the system named is Salmonella enterica subsp. enterica serovar Typhi.
In test [22] the test system is Candida albicans ATCC 90028.

As for `CC[C@H](C)[C@H](NC(=O)[C@H](C)NC(=O)CNC(=O)[C@H](CC(C)C)NC(=O)[C@@H](N)Cc1ccccc1)C(=O)N[C@@H](C)C(=O)N[C@@H](C)C(=O)N[C@@H](C)C(=O)N[C@@H](CC(C)C)C(=O)N1CCC[C@H]1C(=O)N[C@@H](Cc1cnc[nH]1)C(=O)N[C@H](C(=O)N[C@H](C(=O)N[C@@H](CC(N)=O)C(=O)N[C@@H](C)C(=O)N[C@H](C(=O)N[C@H](C(=O)N[C@@H](CC(N)=O)C(=O)N[C@@H](C)C(=O)N[C@@H](CC(C)C)C(=O)O)[C@@H](C)O)C(C)C)[C@@H](C)CC)C(C)C` [FLGAIAAALPHVINAVTNAL], the MIC in [1] was 16 µM (≈ 31.6 µg/mL); in [2], at least 120 µM.

Consider `CC[C@H](C)[C@H](NC(=O)[C@H](CO)NC(=O)[C@H](CCCCN)NC(=O)[C@H](C)NC(=O)[C@H](C)NC(=O)[C@H](CC(N)=O)NC(=O)[C@H](Cc1c[nH]c2ccccc12)NC(=O)[C@H](CC(C)C)NC(=O)[C@@H](NC(=O)[C@H](CO)NC(=O)[C@H](CC(C)C)NC(=O)[C@@H](N)Cc1ccccc1)[C@@H](C)O)C(=O)N[C@@H](Cc1ccccc1)C(N)=O` [FLSTLWNAAKSIF], for which the MIC turned out to be 10 µM (≈ 15 µg/mL) in test [3]; 10 µM (≈ 15 µg/mL) in test [4]; 10 µM (≈ 15 µg/mL) in [5]; 20 µM (≈ 29.9 µg/mL) in test [6]; 20 µM (≈ 29.9 µg/mL) in test [7]; 20 µM (≈ 29.9 µg/mL) against Streptococcus agalactiae.

In the case of `CC[C@H](C)[C@H](NC(=O)[C@H](CO)NC(=O)[C@H](CCCCN)NC(=O)[C@H](CCCN=C(N)N)NC(=O)[C@H](C)NC(=O)[C@H](C)NC(=O)CN)C(=O)N[C@@H](CCCN=C(N)N)C(=O)N[C@@H](CC(C)C)C(=O)N[C@@H](Cc1cnc[nH]1)C(=O)N[C@@H](CCCN=C(N)N)C(=O)N[C@@H](CC(C)C)C(=O)N[C@@H](Cc1ccc(O)cc1)C(=O)N[C@H](C(=O)N[C@@H](Cc1c[nH]c2ccccc12)C(=O)N[C@@H](CCCCN)C(=O)N[C@@H](C)C(=O)N[C@H](C(=O)N[C@H](C(=O)N[C@@H](Cc1ccc(O)cc1)C(=O)N[C@H](C(=O)N[C@@H](CCCN=C(N)N)C(=O)O)[C@@H](C)O)[C@@H](C)CC)[C@@H](C)O)[C@@H](C)O` [GAARKSIRLHRLYTWKATIYTR], the MIC in test [8] was 9 µM (≈ 24 µg/mL); in test [9] it was 8 µM (≈ 21.3 µg/mL); in [10], 23.3 µM (≈ 62 µg/mL); in test [11] it was 13.3 µM (≈ 35.4 µg/mL); in test [12], 16.7 µM (≈ 44.5 µg/mL).

Regarding `CC[C@H](C)[C@H](NC(=O)CN)C(=O)NCC(=O)NCC(=O)N[C@@H](C)C(=O)N[C@@H](CC(C)C)C(=O)N[C@@H](CC(C)C)C(=O)N[C@@H](CO)C(=O)N[C@H](C(=O)NCC(=O)N[C@@H](CCCCN)C(=O)N[C@@H](CO)C(=O)N[C@@H](C)C(=O)N[C@@H](CC(C)C)C(=O)N[C@@H](CCCCN)C(=O)NCC(=O)N[C@@H](CC(C)C)C(=O)N[C@H](C(=O)N[C@@H](CCCCN)C(=O)NCC(=O)N[C@@H](CC(C)C)C(=O)N[C@@H](C)C(=O)N[C@@H](CCC(=O)O)C(=O)N[C@@H](Cc1cnc[nH]1)C(=O)N[C@@H](Cc1ccccc1)C(N)=O)[C@@H](C)O)C(C)C` [GIGGALLSVGKSALKGLTKGLAEHF], the MIC was 30.9 µM (≈ 75 µg/mL) in test [5], above 41.2 µM in test [6], at least 41.2 µM in [7] and at least 41.2 µM in [13].

With `CC[C@H](C)[C@@H]1NC(=O)[C@H](CCCCN)NC(=O)[C@@H](NC(=O)[C@H](C)NC(=O)[C@@H](NC(=O)[C@H](CC(C)C)NC(=O)[C@H](CC(=O)O)NC(=O)[C@@H](NC(=O)CNC(=O)[C@H](CC(C)C)NC(=O)[C@H](CCCCN)NC(=O)[C@H](C)NC(=O)[C@H](CC(C)C)NC(=O)[C@H](CC(=O)O)NC(=O)[C@H](CCCCN)NC(=O)CNC(=O)[C@H](CC(C)C)NC(=O)CN)C(C)C)C(C)C)CSSC[C@@H](C(=O)O)NC(=O)[C@H](CCC(N)=O)NC(=O)[C@H](CCCCN)NC(=O)[C@H](CO)NC1=O` [GLGKDLAKLGVDLVACKISKQC], the minimal inhibitory concentration (MIC) was at least 200 µM in test [14]; at least 200 µM in [15]; at least 200 µM in test [16]; at least 200 µM in test [17]; above 200 µM in test [5]; at least 200 µM in test [18]. In [19], the MIC was at least 200 µM.

As to `CC[C@H](C)[C@H](N)C(=O)N[C@@H](CC(C)C)C(=O)NCC(=O)N[C@@H](CC(C)C)C(=O)N[C@H](C(=O)N[C@H](C(=O)N[C@@H](CO)C(=O)N[C@H](C(=O)N[C@H](C(=O)NCC(=O)N[C@@H](CC(N)=O)C(=O)N[C@H](C(=O)N[C@@H](CC(C)C)C(=O)NCC(=O)NCC(=O)N[C@@H](CC(C)C)C(=O)N[C@@H](CC(C)C)C(=O)N[C@@H](CCCCN)C(=O)N[C@@H](CC(N)=O)C(=O)N[C@@H](CC(C)C)C(N)=O)C(C)C)[C@@H](C)CC)[C@@H](C)O)[C@@H](C)CC)C(C)C` [ILGLVISTIGNVLGGLLKNL], the MIC in [5] is above 49.8 µM; in test [6], above 49.8 µM; in test [7] it was at least 49.8 µM; in [13] it was at least 49.8 µM.

For the molecule `CC(C)C[C@H](NC(=O)[C@H](CCCCN)NC(=O)[C@H](CCCN=C(N)N)NC(=O)[C@H](Cc1ccccc1)NC(=O)[C@H](Cc1ccccc1)NC(=O)[C@H](CCCCN)NC(=O)[C@H](CCCCN)NC(=O)[C@H](Cc1ccccc1)NC(=O)[C@H](CCCN=C(N)N)NC(=O)[C@H](CCCCN)NC(=O)[C@@H](NC(=O)[C@@H](N)CC(C)C)C(C)C)C(=O)N[C@@H](CCCCN)C(=O)N[C@@H](CCCCN)C(=O)N[C@@H](CO)C(=O)N[C@H](C(=O)N[C@@H](CCCCN)C(=O)N[C@@H](CCCCN)C(N)=O)C(C)C` [LVKRFKKFFRKLKKSVKK], the MIC with Enterobacter cloacae was at least 55.4 µM; with Pseudomonas aeruginosa, 3.46 µM (≈ 8 µg/mL); in test [20] it was 27.7 µM (≈ 64 µg/mL); in the test with Staphylococcus aureus, 55.4 µM (≈ 128 µg/mL); in [5], 1.73 µM (≈ 4 µg/mL); in [21], 0.866 µM (≈ 2 µg/mL). Also, the MIC in the test with Bacillus subtilis was 27.7 µM (≈ 64 µg/mL); in test [6] it was 6.93 µM (≈ 16 µg/mL); in test [22] it was 27.7 µM (≈ 64 µg/mL); against Escherichia coli, 55.4 µM (≈ 128 µg/mL).

With `CC(C)C[C@H](NC(=O)[C@H](CCCCN)NC(=O)[C@H](CCCN=C(N)N)NC(=O)[C@H](Cc1ccccc1)NC(=O)[C@H](Cc1ccccc1)NC(=O)[C@H](CCCCN)NC(=O)[C@H](CCCCN)NC(=O)[C@H](Cc1ccccc1)NC(=O)[C@H](CCCN=C(N)N)NC(=O)[C@H](CCCCN)NC(=O)[C@@H](NC(=O)[C@@H](N)CC(C)C)C(C)C)C(=O)N[C@@H](CCCCN)C(=O)N[C@@H](CCCCN)C(=O)N[C@@H](CO)C(=O)N[C@H](C(=O)N[C@@H](CCCCN)C(N)=O)C(C)C` [LVKRFKKFFRKLKKSVK], the minimal inhibitory concentration (MIC) with Enterobacter cloacae was determined as 14.7 µM (≈ 32 µg/mL); in the test with Pseudomonas aeruginosa it was 1.83 µM (≈ 4 µg/mL); in [20], 29.3 µM (≈ 64 µg/mL); against Staphylococcus aureus it was 58.7 µM (≈ 128 µg/mL); in test [5] it was 117 µM (≈ 256 µg/mL); in test [21], 0.917 µM (≈ 2 µg/mL). The MIC against Bacillus subtilis came to 14.7 µM (≈ 32 µg/mL); in [6], 117 µM (≈ 256 µg/mL); in test [22] it was 14.7 µM (≈ 32 µg/mL); in the test with Escherichia coli it was 14.7 µM (≈ 32 µg/mL).

As to `CC(C)[C@H](NC(=O)[C@@H]1CCCN1C(=O)[C@@H]1CCCN1C(=O)[C@@H](NC(=O)[C@@H](N)Cc1ccc(O)cc1)C(C)C)C(=O)N[C@@H](CCC(N)=O)C(=O)N[C@@H](CCCCN)C(=O)N1CCC[C@H]1C(=O)N[C@@H](Cc1cnc[nH]1)C(=O)N1CCC[C@H]1C(=O)N[C@@H](CC(N)=O)C(=O)NCC(=O)N1CCC[C@H]1C(=O)N[C@@H](CCCCN)C(=O)N[C@@H](Cc1ccccc1)C(=O)N1CCC[C@H]1C(=O)N[C@H](C(=O)N[C@@H](Cc1ccccc1)C(=O)N1CCC[C@H]1C(=O)O)[C@@H](C)O` [YVPPVQKPHPNGPKFPTFP], the MIC in test [8] was 13.3 µM (≈ 28.6 µg/mL); in test [9], 13.3 µM (≈ 28.6 µg/mL); in [10] it was at least 133 µM; in test [11] it was 16.7 µM (≈ 35.9 µg/mL); in [12] it was 23.3 µM (≈ 50 µg/mL).

In general, MIC refers to the lowest concentration that inhibits growth of the organism. Low values mean greater potency, high ones weaker potency.
